Assay results as given in patent US5242930A, “Azabicyclic compounds, pharmaceutical compositions containing them and their use in therapy” (Merck Sharp & Dohme Ltd., priority 1991, dated 1993).
Where a name gives a salt, the structure may show the parent alone.

system: longitudinal muscle of guinea pig ileum; test: Antagonism of the contraction elicited by SPOMe (substance P methyl ester) on guinea pig ileum longitudinal muscle (isometric contraction); conditions: Cavia porcellus, compound at 1.0 μM, 0.1μM SPOMe

With `O=[N+]([O-])c1cccc(CO[C@H]2C3CCN(CC3)[C@H]2C(c2ccccc2)c2ccccc2)c1` (relative stereo) [Example 1, cis-2-(Diphenylmethyl)-3-(3-nitrobenzyloxy)-1-azabicyclo[2.2.2]octane oxalate] as the compound, how does the inhibition at 1 µM read?
Its inhibition at 1 µM is > 70%.

`Fc1cc(F)cc(CO[C@H]2C3CCN(CC3)[C@H]2C(c2ccccc2)c2ccccc2)c1` (relative stereo) [Example 7, cis-3-(3,5-Difluorobenzyloxy)-2-(diphenylmethyl)-1-azabicyclo[2.2.2]octane oxalate] was tested. Which inhibition at 1 µM did it give?
The inhibition at 1 µM was > 70%.

How did the inhibition at 1 µM turn out when `FC(F)(F)c1ccccc1CO[C@H]1C2CCN(CC2)[C@H]1C(c1ccccc1)c1ccccc1` (relative stereo) [Example 2, cis-2-(Diphenylmethyl)-3-[2-(trifluoromethyl)benzyloxy]-1-azabicyclo[2.2.2]octane oxalate] was run?
The inhibition at 1 µM was > 70%.

For `Clc1cccc(CO[C@H]2C3CCN(CC3)[C@H]2C(c2ccccc2)c2ccccc2)c1` (relative stereo) [Example 4, cis-3-(3-Chlorobenzyloxy)-2-(diphenylmethyl)-1-azabicyclo[2.2.2]octane oxalate], which inhibition at 1 µM is on record?
Its inhibition at 1 µM is > 70%.

With `COc1ccc(CO[C@H]2C3CCN(CC3)[C@H]2C(c2ccccc2)c2ccccc2)cc1` (relative stereo) [Example 8, cis-2-(Diphenylmethyl)-3-(4-methoxybenzyloxy)-1-azabicyclo[2.2.2]octane oxalate] as the compound, how does the inhibition at 1 µM read?
Its inhibition at 1 µM is > 70%.
